Experimental data: the SangsterLogP compilation

SMILES | logP
CNS(=O)(=O)c1ccc2ccccc2n1 | 1.57
CNS(=O)(=O)c1ccc2cccnc2c1 | 1.02
CN(C)S(=O)(=O)c1cccc2ncccc12 | 1.56
NS(=O)(=O)c1cccc2ncccc12 | 0.6
CN(C)S(=O)(=O)c1cccc2cccnc12 | 1.69
CN(C)S(=O)(=O)c1ccnc2ccccc12 | 1.84
CN(C)S(=O)(=O)c1ccc2cccnc2c1 | 1.57
CNS(=O)(=O)c1cccc2cccnc12 | 1.13
CNS(=O)(=O)c1cccc2ncccc12 | 1.06
CN(C)S(=O)(=O)c1ccc2ccccc2n1 | 1.98
CNS(=O)(=O)c1ccnc2ccccc12 | 1.32

Further lines, results first:

logP | SMILES
1.4 | CNS(=O)(=O)c1cnc2ccccc2c1
0.93 | NS(=O)(=O)c1ccnc2ccccc12
1 | CNS(=O)(=O)c1ccc2ncccc2c1
1.16 | NS(=O)(=O)c1ccc2ccccc2n1
0.51 | NS(=O)(=O)c1cccc2cccnc12
1.53 | CN(C)S(=O)(=O)c1ccc2ncccc2c1
1.86 | CN(C)S(=O)(=O)c1cnc2ccccc2c1
0.61 | NS(=O)(=O)c1ccc2cccnc2c1
0.91 | NS(=O)(=O)c1cnc2ccccc2c1
